The source of these data is patent publication US7745428B2, “Imidazo[1,2-A]pyridine having anti-cell-proliferation activity” (AstraZeneca AB, priority 2005, dated 2010).

SMILES strings stand for the structures.

This experiment has as its target T1, CDK2/Cyclin E (Homo sapiens, UniProt P24941).
T1 construct: The open reading frames of CDK2 and Cyclin E were isolated; made in house; host or cells: Sf21 (Spodoptera frugiperda) insect cells, baculovirus co-infection; substrate in E. coli BL21 (DE3) pLysS
Kind of experiment: in vitro kinase assay (Scintillation Proximity Assay), CDK2/Cyclin E, GST-Rb substrate. The format is biochemical. Conditions: in-vitro SPA kinase assay, 0.2 μM ATP, room temperature, 60 minutes; read-out: CDK2 inhibitory activity (CDK2 enzyme). As to the method: The compounds were tested in an in vitro kinase assay in 96 well format using Scintillation Proximity Assay (SPA—obtained from Amersham) for measuring incorporation of [γ-33-P]-Adenosine Triphosphate into a test substrate (GST-Retinoblastoma protein; GST-Rb). In each well was placed the compound to be tested (diluted in DMSO and water to correct concentrations) and in control wells either roscovitine as an inhibitor control or DMSO as a […] control.
Approximately 0.2 μl of CDK2/Cyclin E partially-purified enzyme (amount dependent on enzyme activity) diluted in 25 μl incubation buffer was added to each well then 20 μl of GST-Rb/ATP/ATP33 mixture (containing 0.5 μg GST-Rb and 0.2 μM ATP and 0.14 μCi[γ-33-P]-Adenosine Triphosphate in incubation buffer), and the resulting mixture shaken gently, then incubated at room temperature for 60 minutes. […]
The plates were sealed with Topseal-S plate sealers, left for two hours then spun at 2500 rpm, 1124×g., for 5 minutes. The plates were read on a Topcount for 30 seconds per well. […]
The open reading frames of CDK2 and Cyclin E were isolated by reverse transcriptase-PCR using HeLa cell and activated T cell mRNA as a template and cloned into the insect expression vector pVL1393 (obtained from Invitrogen 1995 catalogue number: V1392-20). […]

Turning to `CN1CCN(C(=O)c2ccc(Nc3nccc(-c4cnc5ccccn45)n3)cc2)CC1` [Example 2, [4-(4-Imidazo[1,2-a]pyridin-3-yl-pyrimidin-2-ylamino)-phenyl]-(4-methyl-piperazin-1-yl)-methanone], the IC50 worked out at 90 nM.
